pEC50, pIC50: −log10 of the molar value.
Columns and labels:
[1] = molecular target: T1, Amine oxidase [flavin-containing] A (Homo sapiens, UniProt P21397); assay: biochemical
T1 sequence (P21397 whole entry): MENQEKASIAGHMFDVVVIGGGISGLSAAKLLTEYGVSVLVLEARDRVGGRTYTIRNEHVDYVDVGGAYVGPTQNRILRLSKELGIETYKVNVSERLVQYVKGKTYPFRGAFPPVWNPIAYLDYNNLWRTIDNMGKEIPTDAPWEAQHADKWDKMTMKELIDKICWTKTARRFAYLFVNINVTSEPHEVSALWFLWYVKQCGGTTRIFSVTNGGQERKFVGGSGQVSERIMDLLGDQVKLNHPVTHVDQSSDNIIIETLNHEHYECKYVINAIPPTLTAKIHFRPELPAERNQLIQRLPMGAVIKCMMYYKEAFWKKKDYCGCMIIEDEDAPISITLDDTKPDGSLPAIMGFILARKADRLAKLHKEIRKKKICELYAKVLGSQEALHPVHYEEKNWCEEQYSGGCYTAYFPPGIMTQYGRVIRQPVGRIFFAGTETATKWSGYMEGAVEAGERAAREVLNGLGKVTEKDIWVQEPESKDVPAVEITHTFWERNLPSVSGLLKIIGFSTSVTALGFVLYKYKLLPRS
Description: Inhibition of human recombinant MAO-A expressed in baculovirus infected BTI cells by luminescence assay

[2] = molecular target: T2, Lysine-specific histone demethylase 2 (Homo sapiens, UniProt Q8NB78); assay: Inhibition of N-terminal GST-tagged recombinant full length human LSD2 expressed in Baculovirus using Bio- H3K4me2 (1 to 24 residues) as substrate incubated for 1 hr by TR-FRET assay
T2 sequence (Q8NB78 whole entry): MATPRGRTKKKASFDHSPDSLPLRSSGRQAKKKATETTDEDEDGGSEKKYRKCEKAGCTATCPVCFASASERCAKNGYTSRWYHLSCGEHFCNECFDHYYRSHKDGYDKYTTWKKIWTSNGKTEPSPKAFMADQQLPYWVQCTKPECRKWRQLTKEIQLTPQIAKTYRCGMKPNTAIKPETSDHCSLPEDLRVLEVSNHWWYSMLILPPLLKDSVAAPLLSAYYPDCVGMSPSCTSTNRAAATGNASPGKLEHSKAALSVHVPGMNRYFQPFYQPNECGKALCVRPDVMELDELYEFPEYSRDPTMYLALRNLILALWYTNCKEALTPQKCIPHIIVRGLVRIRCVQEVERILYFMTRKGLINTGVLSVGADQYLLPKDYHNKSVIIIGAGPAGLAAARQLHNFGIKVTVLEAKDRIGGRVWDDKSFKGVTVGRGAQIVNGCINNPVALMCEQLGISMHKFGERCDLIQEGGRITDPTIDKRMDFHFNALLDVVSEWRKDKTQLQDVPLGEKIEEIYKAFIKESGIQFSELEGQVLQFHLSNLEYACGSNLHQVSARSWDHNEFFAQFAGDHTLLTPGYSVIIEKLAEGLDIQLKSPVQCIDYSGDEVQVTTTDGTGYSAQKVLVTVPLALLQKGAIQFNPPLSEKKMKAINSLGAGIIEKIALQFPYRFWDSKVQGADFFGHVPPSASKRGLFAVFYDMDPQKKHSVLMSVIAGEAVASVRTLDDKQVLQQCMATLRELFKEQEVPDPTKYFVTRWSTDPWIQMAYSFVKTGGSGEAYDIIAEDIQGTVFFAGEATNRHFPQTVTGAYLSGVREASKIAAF

[3] = molecular target: T3, Amine oxidase [flavin-containing] B (Homo sapiens, UniProt P27338); assay: biochemical
T3 sequence (P27338 whole entry): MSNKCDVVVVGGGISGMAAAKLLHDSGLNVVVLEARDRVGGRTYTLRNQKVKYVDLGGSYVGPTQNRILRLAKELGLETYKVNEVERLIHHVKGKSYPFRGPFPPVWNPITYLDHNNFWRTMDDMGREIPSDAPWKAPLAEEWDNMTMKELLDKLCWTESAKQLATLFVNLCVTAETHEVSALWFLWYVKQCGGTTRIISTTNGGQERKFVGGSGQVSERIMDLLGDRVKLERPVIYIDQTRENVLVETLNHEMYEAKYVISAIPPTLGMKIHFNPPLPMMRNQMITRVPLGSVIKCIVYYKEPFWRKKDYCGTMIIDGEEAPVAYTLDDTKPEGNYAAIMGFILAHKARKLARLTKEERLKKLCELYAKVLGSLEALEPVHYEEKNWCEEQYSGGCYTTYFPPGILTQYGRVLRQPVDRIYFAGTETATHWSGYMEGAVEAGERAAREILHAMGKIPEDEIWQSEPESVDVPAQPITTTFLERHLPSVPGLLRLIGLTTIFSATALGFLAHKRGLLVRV
Description: Inhibition of human recombinant MAO-B expressed in baculovirus infected BTI cells by luminescence assay

Cytochrome P450 1A2 = molecular target: T4, Cytochrome P450 1A2 (Homo sapiens, UniProt P05177); assay: Inhibition of CYP1A2 in human liver microsomes; assay type: ADME, Microsome
T4 sequence (P05177 whole entry): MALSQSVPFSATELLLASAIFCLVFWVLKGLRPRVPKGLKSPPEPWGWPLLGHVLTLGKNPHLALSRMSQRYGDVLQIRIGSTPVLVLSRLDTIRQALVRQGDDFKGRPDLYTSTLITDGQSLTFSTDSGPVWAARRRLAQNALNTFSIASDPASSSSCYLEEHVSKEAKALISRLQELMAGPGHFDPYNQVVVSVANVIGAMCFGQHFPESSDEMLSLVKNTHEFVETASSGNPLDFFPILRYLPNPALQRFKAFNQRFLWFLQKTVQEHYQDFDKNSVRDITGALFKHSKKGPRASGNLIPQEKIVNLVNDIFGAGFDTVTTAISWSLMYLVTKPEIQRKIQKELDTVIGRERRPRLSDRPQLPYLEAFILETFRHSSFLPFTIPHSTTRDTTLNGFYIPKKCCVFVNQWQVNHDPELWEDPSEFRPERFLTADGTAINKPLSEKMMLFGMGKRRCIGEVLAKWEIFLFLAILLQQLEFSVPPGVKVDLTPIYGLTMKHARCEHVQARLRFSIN

Cytochrome P450 3A4 = Cytochrome P450 3A4 (Homo sapiens, UniProt P08684); assay: Inhibition of CYP3A4 in human liver microsomes; assay type: ADME, Microsome
Chain of Cytochrome P450 3A4 (P08684 whole entry): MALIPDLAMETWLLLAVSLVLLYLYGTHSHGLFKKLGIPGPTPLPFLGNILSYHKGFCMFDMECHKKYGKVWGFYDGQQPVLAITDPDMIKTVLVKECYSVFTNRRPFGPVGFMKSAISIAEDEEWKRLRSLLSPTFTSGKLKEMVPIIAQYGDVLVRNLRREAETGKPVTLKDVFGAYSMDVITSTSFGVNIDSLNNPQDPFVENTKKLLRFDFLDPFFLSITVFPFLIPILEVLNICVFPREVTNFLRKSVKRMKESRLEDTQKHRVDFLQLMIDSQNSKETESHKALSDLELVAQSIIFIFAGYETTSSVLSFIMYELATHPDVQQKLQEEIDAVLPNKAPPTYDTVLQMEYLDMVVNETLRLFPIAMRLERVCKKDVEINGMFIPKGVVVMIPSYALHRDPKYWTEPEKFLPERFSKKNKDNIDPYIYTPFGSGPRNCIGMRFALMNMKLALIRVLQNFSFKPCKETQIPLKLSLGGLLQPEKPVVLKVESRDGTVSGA

Cytochrome P450 2D6 = Cytochrome P450 2D6 (Homo sapiens, UniProt P10635); assay: Inhibition of CYP2D6 in human liver microsomes; assay type: ADME, Microsome
Chain of Cytochrome P450 2D6 (P10635 whole entry): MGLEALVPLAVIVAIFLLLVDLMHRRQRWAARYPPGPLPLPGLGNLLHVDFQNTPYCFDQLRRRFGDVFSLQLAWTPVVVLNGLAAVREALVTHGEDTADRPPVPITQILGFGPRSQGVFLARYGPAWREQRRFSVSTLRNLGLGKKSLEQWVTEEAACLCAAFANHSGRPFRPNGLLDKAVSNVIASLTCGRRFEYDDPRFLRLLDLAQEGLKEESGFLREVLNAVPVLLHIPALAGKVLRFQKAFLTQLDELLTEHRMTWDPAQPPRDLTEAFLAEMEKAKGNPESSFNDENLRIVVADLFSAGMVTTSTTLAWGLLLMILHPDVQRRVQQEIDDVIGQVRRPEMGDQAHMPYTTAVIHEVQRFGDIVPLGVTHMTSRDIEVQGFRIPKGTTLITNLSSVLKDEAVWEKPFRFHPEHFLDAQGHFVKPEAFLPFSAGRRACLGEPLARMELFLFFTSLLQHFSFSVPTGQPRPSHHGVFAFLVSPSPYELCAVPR

Cytochrome P450 2C9 = Cytochrome P450 2C9 (Homo sapiens, UniProt P11712); assay: Inhibition of CYP2C9 in human liver microsomes; assay type: ADME, Microsome
Chain of Cytochrome P450 2C9 (P11712 whole entry): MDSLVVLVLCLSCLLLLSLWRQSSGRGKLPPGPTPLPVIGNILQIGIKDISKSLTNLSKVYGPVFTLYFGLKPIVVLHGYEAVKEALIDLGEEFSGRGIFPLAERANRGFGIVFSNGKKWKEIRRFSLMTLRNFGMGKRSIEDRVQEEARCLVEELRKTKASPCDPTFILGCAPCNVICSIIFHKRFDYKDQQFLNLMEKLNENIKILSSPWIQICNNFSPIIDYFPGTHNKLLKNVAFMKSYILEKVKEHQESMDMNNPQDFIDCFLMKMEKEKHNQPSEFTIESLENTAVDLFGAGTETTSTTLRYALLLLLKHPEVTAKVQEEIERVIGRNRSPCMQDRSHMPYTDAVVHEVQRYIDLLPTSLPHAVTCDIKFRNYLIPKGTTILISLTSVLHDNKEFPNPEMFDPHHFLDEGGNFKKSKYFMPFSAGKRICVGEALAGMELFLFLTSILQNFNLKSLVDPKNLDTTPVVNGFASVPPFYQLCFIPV

Cytochrome P450 2C19 = Cytochrome P450 2C19 (Homo sapiens, UniProt P33261); assay: Inhibition of CYP2C19 in human liver microsomes; assay type: ADME, Microsome
Chain of Cytochrome P450 2C19 (P33261 whole entry): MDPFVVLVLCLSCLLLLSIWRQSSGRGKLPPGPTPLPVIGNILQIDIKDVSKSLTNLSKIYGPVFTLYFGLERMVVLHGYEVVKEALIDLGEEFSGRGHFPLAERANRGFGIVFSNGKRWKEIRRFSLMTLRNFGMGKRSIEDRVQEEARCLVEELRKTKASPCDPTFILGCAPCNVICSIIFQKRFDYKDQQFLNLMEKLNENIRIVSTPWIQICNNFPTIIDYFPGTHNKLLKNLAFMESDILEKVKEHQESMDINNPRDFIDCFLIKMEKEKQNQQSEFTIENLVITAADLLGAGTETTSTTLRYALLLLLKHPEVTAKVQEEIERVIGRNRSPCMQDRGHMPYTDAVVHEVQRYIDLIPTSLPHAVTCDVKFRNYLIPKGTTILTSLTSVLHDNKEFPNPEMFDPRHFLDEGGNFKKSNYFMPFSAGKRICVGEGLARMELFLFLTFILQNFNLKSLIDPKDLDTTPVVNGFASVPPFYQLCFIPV

MV4-11 [4] = assay: Antitumor activity against human MV4-11 cells xenografted in Nu/Nu female mouse model assessed as relative tumor volume at 20 mg/kg, sc administered 5 days per week and measured on day 17 (reference value: 9.52+/-4.19); assay type: functional; conditions: time 17 day
MV4-11 [5] = assay: Antitumor activity against human MV4-11 cells xenografted in Nu/Nu female mouse model assessed as reduction in tumor volume at 20 mg/kg, sc measured immediately (reference value: 131+/-53 mm3); assay type: functional
MV4-11 [6] = assay: Antitumor activity against human MV4-11 cells xenografted in Nu/Nu female mouse model assessed as tumor growth inhibition at 20 mg/kg, sc administered 5 days per week and measured on day 17 relative to control; assay type: functional; conditions: MV4-11, 408 h, time 17 day, read-out: TGI
MV4-11 [7] = assay: Antitumor activity against human MV4-11 cells xenografted in Nu/Nu female mouse model assessed as reduction in tumor volume at 20 mg/kg, sc administered 5 days per week and measured on day 17 (reference value: 1187+/-508 mm3); assay type: functional; conditions: time 17 day
MV4-11 [8] = assay: Antitumor activity against human MV4-11 cells xenografted in Nu/Nu female mouse model assessed as relative tumor growth rate at 20 mg/kg, sc administered 5 days per week and measured on day 17 relative to control; assay type: functional; conditions: time 17 day
MV4-11 [9] = assay: Antitumor activity against human MV4-11 cells xenografted in Nu/Nu female mouse model assessed as reduction in tumor volume at 20 mg/kg, po qd and measured on day 17 (reference value: 1187+/-508 mm3); assay type: functional; conditions: time 17 day
NCI-H526 = assay: Antiproliferative activity against human NCI-H526 cells assessed as inhibition of cell growth incubated for 240 hrs by MTS assay; assay type: functional, cell-based; conditions: NCI-H526, 240 h
MV4-11 [10] = assay: Antitumor activity against human MV4-11 cells xenografted in Nu/Nu female mouse model assessed as relative tumor growth rate at 20 mg/kg, po qd and measured on day 17 relative to control; assay type: functional; conditions: time 17 day
[11] = Upregulation of CD86 mRNA expression level in human MV4-11 cells measured after 24 hrs by RT-qPCR analysis; assay type: functional, cell-based; conditions: MV4-11, 24 h
MV4-11 [12] = assay: Antitumor activity against human MV4-11 cells xenografted in Nu/Nu female mouse model assessed as reduction in tumor volume at 20 mg/kg, po qd measured immediately (reference value: 131+/-53 mm3); assay type: functional
MV4-11 [13] = assay: Antitumor activity against human MV4-11 cells xenografted in Nu/Nu female mouse model assessed as tumor growth inhibition at 20 mg/kg, po qd and measured on day 17 relative to control; assay type: functional; conditions: MV4-11, 408 h, time 17 day, read-out: TGI
Kasumi 1 = assay: Antiproliferative activity against human Kasumi 1 cells assessed as inhibition of cell growth incubated for 240 hrs by MTS assay; assay type: functional, cell-based; conditions: Kasumi 1, 240 h
MV4-11 [14] = assay: Antitumor activity against human MV4-11 cells xenografted in Nu/Nu female mouse model assessed as relative tumor volume at 20 mg/kg, po qd and measured on day 17 (reference value: 9.52+/-4.19); assay type: functional; conditions: time 17 day

Row | SMILES | pIC50 [1] | pIC50 [2] | pIC50 [3] | pIC50 (Cytochrome P450 1A2) | pIC50 (Cytochrome P450 2D6) | pIC50 (Cytochrome P450 2C9) | pIC50 (Cytochrome P450 2C19) | pIC50 (Cytochrome P450 3A4; read-out: IC50) | also measured
1 | Cc1cc(C)c(-c2ncc3c(cc(CN4CC[C@H](N)C4)n3CC(F)F)c2-c2ccc(C#N)c(F)c2)cc1C | < 4.70 | < 4.70 | < 4.70 | – | – | – | – | – | –
2 | Nc1ccn([C@@H]2O[C@H](CO)[C@@H](O)[C@@H]2O)c(=O)n1 [CYTARABINE] | – | – | – | – | – | – | – | – | Activity (MV4-11 [4]): 5.65; Activity (MV4-11 [5]): 131 mm3; inhibition in vivo at 20 mg/kg (MV4-11 [6]): 54.7%; Activity (MV4-11 [7]): 741 mm3; Activity (MV4-11 [8]): 59.36%
3 | Cc1ccc(-c2ncc3c(cc(CN4CC[C@H](N)C4)n3C(C)C)c2-c2ccc(C#N)c(F)c2)cc1C | < 4.70 | < 4.70 | < 4.70 | < 4.30 | 4.37 | 4.54 | 4.61 | 5.02 | –
4 | COc1ccc(-c2c(-c3ccc(C#N)c(F)c3)nc(N3CCC(N)CC3)n(C)c2=O)cc1F [PULRODEMSTAT] | – | – | – | – | – | – | – | – | Activity (MV4-11 [9]): 554 mm3; pIC50 (NCI-H526): 8.00; Activity (MV4-11 [10]): 39.33%; pEC50 [11]: 7.49; Activity (MV4-11 [12]): 132 mm3; inhibition in vivo at 20 mg/kg (MV4-11 [13]): 64.2%; pIC50 (Kasumi 1): 8.52; Activity (MV4-11 [14]): 3.75

The next lines start with results.

Row | pIC50 [1] | pIC50 [2] | pIC50 [3] | pIC50 (Cytochrome P450 1A2) | pIC50 (Cytochrome P450 2D6) | pIC50 (Cytochrome P450 2C9) | pIC50 (Cytochrome P450 2C19) | pIC50 (Cytochrome P450 3A4; read-out: IC50) | SMILES | also measured
5 | < 4.70 | < 4.70 | < 4.70 | – | – | – | – | – | CCn1c(CN2CC[C@H](N)C2)cc2c(-c3ccc(C#N)c(F)c3)c(-c3cc(C)c(C)c(C)c3)ncc21 | –
6 | < 4.70 | < 4.70 | < 4.70 | < 4.30 | 4.33 | 4.48 | – | – | Cc1cc(C)c(-c2ncc3c(cc(CN4CC[C@H](N)C4)n3C(C)C)c2-c2ccc(C#N)c(F)c2)cc1C | pIC50 (Cytochrome P450 3A4): 5.34
7 | < 4.70 | < 4.70 | < 4.70 | < 4.30 | < 4.30 | 4.52 | 4.75 | 5.30 | Cc1cc(-c2ncc3c(cc(CN4CC[C@H](N)C4)n3C(C)C)c2-c2ccc(C#N)c(F)c2)cc(C)c1C | –
8 | < 4.70 | < 4.70 | < 4.70 | < 4.30 | 4.34 | 4.34 | 4.59 | 4.68 | Cc1ccc(-c2ncc3c(cc(CN4CC[C@H](N)C4)n3CC(F)F)c2-c2ccc(C#N)c(F)c2)cc1C | –
9 | < 4.70 | < 4.70 | < 4.70 | < 4.30 | 4.69 | 4.56 | 4.66 | 5.11 | Cc1cc(C)c(-c2ncc3c(cc(CN4CC[C@H](N)C4)n3CC(F)(F)F)c2-c2ccc(C#N)c(F)c2)cc1C | –
10 | < 4.70 | < 4.70 | < 4.70 | – | – | – | – | – | Cc1cc(C)c(-c2ncc3c(cc(CN4CC[C@H](N)C4)n3C)c2-c2ccc(C#N)c(F)c2)cc1C | –

— ChEMBL document CHEMBL6074676, “Optimization and Biological Evaluation of Novel 1H-Pyrrolo[2,3-c]pyridin Derivatives as Potent and Reversible Lysine Specific Demethylase 1 Inhibitors for the Treatment of Acute Myelogenous Leukemia” (J Med Chem, 2024)
